Data reported in US20250171459A1, “2-METHYL-4',5'-DIHYDROSPIRO[PIPERIDINE-4,7'-THIENO[2,3-C]PYRAN] DERIVATIVES AS INHIBITORS OF APOL1 AND METHODS OF USING SAME” (Vertex Pharmaceuticals Incorporated, priority 2022, published 2025).

The compounds below were run against T1, APOL1 (Homo sapiens, UniProt O14791) (assay: MultiTox-Fluor Multiplex Cytotoxicity Assay in tet-inducible APOL1 T-REx-HEK293 cells (cell rescue, ratio of dead to live cells)). Details: tet-inducible transgenic APOL1 T-REx-HEK293 cell lines, 50 ng/mL tet, 24 hours; read-out: IP50 (i.e., IC50 for cell proliferation).
T1 sequence (O14791 1-398 S342G/I384M): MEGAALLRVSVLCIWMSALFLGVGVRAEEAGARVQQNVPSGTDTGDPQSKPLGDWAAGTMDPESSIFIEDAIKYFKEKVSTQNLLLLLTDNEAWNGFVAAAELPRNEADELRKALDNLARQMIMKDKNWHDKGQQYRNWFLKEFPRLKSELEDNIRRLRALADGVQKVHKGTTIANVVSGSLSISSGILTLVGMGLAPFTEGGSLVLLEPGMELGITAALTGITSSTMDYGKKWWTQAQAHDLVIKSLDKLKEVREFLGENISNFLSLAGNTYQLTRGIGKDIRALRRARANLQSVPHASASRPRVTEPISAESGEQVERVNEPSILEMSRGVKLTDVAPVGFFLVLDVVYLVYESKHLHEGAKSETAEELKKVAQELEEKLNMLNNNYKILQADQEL
Assay type: cell-based
Outline: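 T-REx-HEK293 cells with tet-inducible APOL1 were treated with compound (10 μM top, 10-point 3-fold dilution, duplicate) plus 50 ng/mL tetracycline for 24 h at 37° C, in DMEM with 2% tet-free FBS. MultiTox-Fluor protease signals gave a dead/live ratio, normalized to no tet (100% viability) and tet alone (0%).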

Structure (SMILES) | IC50
COCCn1cc(CN2CC[C@]3(C[C@@H]2C)OCCc2c3sc(C(F)(F)F)c2CO)cn1 [Compound 906] | < 100 nM
CCc1cc2c(s1)CCO[C@@]21CCN(Cc2cnc(N[C@H]3CCCC[C@@H]3O)nc2)[C@@H](C)C1 [Compound 209] | < 100 nM
C[C@H]1C[C@@]2(CCN1Cc1ccc(N3CCCC3=O)cc1)OCCc1cc(Cl)sc12 [Compound 647] | < 100 nM
CCOC(=O)N[C@H]1C[C@@H](CN2CC[C@]3(C[C@@H]2C)OCCc2sc(CC)cc23)C1 [Compound 375] | < 100 nM
C[C@H]1C[C@@]2(CCN1Cc1cnn(C[C@@H](O)CO)c1)OC[C@@H](O)c1cc(C(F)(F)F)sc12 [Compound 969] | < 100 nM
C[C@H]1C[C@@]2(CCN1CC(C)(C)O)OCCc1cc(CC(F)F)sc12 [Compound 603] | 100 to 500 nM
C[C@H]1C[C@@]2(CCN1CC1CCCO1)OCCc1cc(CC(F)F)sc12 (stereo partly drawn) [Compound 586] | 500 to 1000 nM
CCc1cc2c(s1)CCO[C@@]21CCN(C[C@H]2C[C@@H](NC(=O)c3oncc3C)C2)[C@@H](C)C1 [Compound 308] | < 100 nM
CCc1cc2c(s1)CCO[C@@]21CCN(Cc2ccc(NC(C)(C)CO)nc2)[C@@H](C)C1 [Compound 228] | < 100 nM
C[C@H]1C[C@@]2(CCN1Cc1ccncc1)OCCc1cc(Cl)sc12 [Compound 645] | 100 to 500 nM
CCc1cc2c(s1)CCOC21CCN(Cc2ccc(NC3(CO)CC3)nc2)CC1 [Compound 1070] | 100 to 500 nM
CCN1CC[C@]2(C[C@@H]1C)OCC(O)c1cc(Cl)sc12 (stereo in doubt) [Compound 821, (2′S,4S,7R)-2-chloro-1′-ethyl-2′-methyl-spiro[4,5-dihydrothieno[2,3-c]pyran-7,4′-piperidine]-4-ol] | 100 to 500 nM
C[C@H]1C[C@@]2(CCN1Cc1cnn(CC(O)C3CCOCC3)c1)OCCc1c2sc(C(F)(F)F)c1CO (stereo partly drawn) [Compound 959] | < 100 nM
Cn1cc(CN2CCC3(CC2)OCCc2sc(Cl)cc23)cn1 [Compound 1168] | 500 to 1000 nM
CCc1cc2c(s1)CCO[C@@]21CCN(Cc2cnc(N[C@@H](C)C(=O)NC)nc2)[C@@H](C)C1 [Compound 225] | < 100 nM
C[C@H]1C[C@@]2(CCN1Cc1cnn(CCS(C)(=O)=O)c1)OCCc1c2sc(C(F)(F)F)c1CO [Compound 872, [(2′S,7R)-2′-methyl-1′-[[1-(2-methylsulfonylethyl)pyrazol-4-yl]methyl]-2-(trifluoromethyl)spiro[4,5-dihydrothieno[2,3-c]pyran-7,4′-piperidine]-3-yl]methanol] | < 100 nM
C[C@H]1C[C@@]2(CCN1CC1CCN(S(C)(=O)=O)CC1)OCCc1cc(Cl)sc12 [Compound 670] | 100 to 500 nM
CNC(=O)[C@@H](O)CN1CC[C@]2(C[C@@H]1C)OCCc1cc(CC(F)F)sc12 [Compound 612, (2S)-3-[(2′S, 7R)-2-(2,2-difluoroethyl)-2′-methyl-spiro[4,5-dihydrothieno[2,3-c]pyran-7,4′-piperidine]-1′-yl]-2-hydroxy-N-methyl-propanamide] | 100 to 500 nM
CCc1cc2c(s1)CCO[C@]21CCN(Cc2cnn(C)c2)[C@H](C)C1 [Compound 270] | 100 to 500 nM
CC(=O)OC1CO[C@@]2(CCN(Cc3cnn(CCS(C)(=O)=O)c3)[C@@H](C)C2)c2sc(Cl)cc21 (stereo partly drawn) [Compound 847, [(2′S, 7R)-2-chloro-2′-methyl-1′-[[1-(2-methylsulfonylethyl)pyrazol-4-yl]methyl]spiro[4,5-dihydrothieno[2,3-c]pyran-7,4′-piperidine]-4-yl]acetate] | < 100 nM
C[C@H]1C[C@@]2(CCN1Cc1cccc(OCCO)c1)OC[C@H](O)c1cc(Cl)sc12 [Compound 803] | 100 to 500 nM
CCc1cc2c(s1)CCO[C@@]21CCN(C[C@H]2C[C@@H](NC(=O)C(O)C3CC3)C2)[C@@H](C)C1 (stereo partly drawn) [Compound 333] | < 100 nM
C[C@H]1C[C@@]2(CCN1Cc1cn(CC(CO)CO)nn1)OCCc1cc(Cl)sc12 [Compound 628] | 100 to 500 nM
CCc1cc2c(s1)CCO[C@@]21CCN(Cc2cn(C[C@@H](C)O)nn2)[C@@H](C)C1 [Compound 140] | < 100 nM
CCc1cc2c(s1)CCO[C@@]21CCN(C[C@H]2C[C@@H](NC(=O)OCC3CC3)C2)[C@@H](C)C1 [Compound 378] | 100 to 500 nM
CCc1cc2c(s1)CCOC21CCN(Cc2cn(CC(O)CO)nn2)C(C)C1 (stereo not drawn) [Compound 143] | < 100 nM

Structure (SMILES) | IC50
C[C@H]1C[C@@]2(CCN1Cc1ccc(N(CCO)CCO)cc1)OCCc1cc(Cl)sc12 [Compound 636] | < 100 nM
CCc1cc2c(s1)CCO[C@@]21CCN(Cc2cn(CC3(S(C)(=O)=O)CC3)nn2)[C@@H](C)C1 [Compound 156] | < 100 nM
C[C@H]1C[C@@]2(CCN1Cc1nccn1C)OCCc1cc(CC(F)F)sc12 [Compound 592] | 500 to 1000 nM
CCc1cc2c(s1)CCO[C@@]21CCN(C[C@H]2C[C@@H](NC(=O)C3(O)CCC3)C2)[C@@H](C)C1 [Compound 330] | < 100 nM
CCc1cc2c(s1)CCO[C@@]21CCN(Cc2cn(CCS(=O)(=O)NC)nn2)[C@@H](C)C1 [Compound 12, 2-[4-[[(2′S)-2-ethyl-2′-methyl-spiro[6,7-dihydrothieno[3,2-c]pyran-4,4′-piperidine]-1′-yl]methyl]triazol-1-yl]-N-methyl-ethanesulfonamide] | < 100 nM
C[C@H]1C[C@@]2(CCN1Cc1cnn(CCS(C)(=O)=O)c1)OCCc1sc(CC(F)F)cc12 [Compound 523, (2′S,4R)-2-(2,2-difluoroethyl)-2′-methyl-1′-[[1-(2-methylsulfonylethyl)pyrazol-4-yl]methyl]spiro[6,7-dihydrothieno[3,2-c]pyran-4,4′-piperidine]] | < 100 nM
C[C@H]1C[C@@]2(CCN1Cc1cnn(CCS(C)(=O)=O)c1)OCCc1cc(CC(F)(F)F)sc12 [Compound 1032, (2′S, 7R)-2′-methyl-1′-[[1-(2-methylsulfonylethyl)pyrazol-4-yl]methyl]-2-(2,2,2-trifluoroethyl)spiro[4,5-dihydrothieno[2,3-c]pyran-7,4′-piperidine]] | < 100 nM
C[C@H]1C[C@@]2(CCN1Cc1cn(CCS(C)(=O)=O)nn1)OCCc1c2sc(C(F)(F)F)c1Cl [Compound 1010, (2′S, 7R)-3-chloro-2′-methyl-1′-[[1-(2-methylsulfonylethyl)triazol-4-yl]methyl]-2-(trifluoromethyl)spiro[4,5-dihydrothieno[2,3-c]pyran-7,4′-piperidine]] | < 100 nM
CCc1cc2c(s1)CCO[C@@]21CCN(C[C@H]2C[C@@H](NC(=O)CCN3CCCCC3)C2)[C@@H](C)C1 [Compound 322] | 100 to 500 nM
Cc1cn2nc(CN3CC[C@]4(C[C@@H]3C)OCC(O)c3cc(Cl)sc34)cc2c(NC2CC2)n1 (mixture of isomers) [Compound 826, 2-chloro-1′-[[4-(cyclopropylamino)-6-methyl-pyrazolo[1,5-a]pyrazin-2-yl]methyl]-2′-methyl-spiro[4,5-dihydrothieno[2,3-c]pyran-7,4′-piperidine]-4-ol] | < 100 nM
C[C@H]1C[C@@]2(CCN1Cc1ccc(C(=O)N(C)C)cc1)OCCc1cc(Cl)sc12 [Compound 660] | 100 to 500 nM
CCc1cc2c(s1)CCO[C@@]21CCN(C[C@H](O)c2ccccc2)[C@@H](C)C1 [Compound 246] | < 100 nM
CCc1cc2c(s1)CCOC21CCN(CC2CN(C(=O)OC(C)(C)C)C2)CC1 [Compound 1149] | 500 to 1000 nM
CCc1cc2c(s1)CCOC21CCN(Cc2cn(Cc3cc(COC)[nH]n3)nn2)CC1 [Compound 1108] | 500 to 1000 nM
C[C@H]1C[C@@]2(CCN1Cc1cnn(CCCC(N)=O)c1)OCCc1c2sc(C(F)(F)F)c1CO [Compound 898] | < 100 nM
CCc1cc2c(s1)CCO[C@@]21CCN(C[C@H]2C[C@@H](NC(=O)Oc3ccc(Cl)cc3)C2)[C@@H](C)C1 [Compound 382] | < 100 nM
Cc1cc2c(s1)C1(CCN(Cc3cn(CCS(C)(=O)=O)nn3)[C@@H](C)C1)OCC2 (stereo partly drawn) [Compound 1029, (2′S)-2,2′-dimethyl-1′-[[1-(2-methylsulfonylethyl)triazol-4-yl]methyl]spiro[4,5-dihydrothieno[2,3-c]pyran-7,4′-piperidine]] | 100 to 500 nM
CCc1cc2c(s1)CCO[C@@]21CCN(Cc2cn(CCS(=O)(=O)C(C)(C)C)nn2)[C@@H](C)C1 [Compound 159] | 100 to 500 nM
CC(O)CCN1CC[C@]2(C[C@@H]1C)OCCc1cc(Cl)sc12 (stereo partly drawn) [Compound 643] | 500 to 1000 nM
C[C@H]1C[C@@]2(CCN1Cc1cnc(N3CCOCC3)nc1)OC[C@H](O)c1cc(Cl)sc12 [Compound 800] | < 100 nM
CC(O)Cn1cc(CN2CC[C@]3(C[C@@H]2C)OC[C@](O)(C(F)F)c2cc(Cl)sc23)nn1 (stereo partly drawn) [Compound 837] | < 100 nM
CCc1cc2c(s1)CCO[C@@]21CCN(CC(O)CC(F)(F)F)[C@@H](C)C1 (stereo partly drawn) [Compound 238] | 100 to 500 nM
C[C@H]1C[C@@]2(CCN1Cc1cnn(C[C@@H](O)C(=O)N(C)C)c1)OCCc1c2sc(C(F)(F)F)c1CO [Compound 987, (2R)-2-hydroxy-3-[4-[[(2′S, 7R)-3-(hydroxymethyl)-2′-methyl-2-(trifluoromethyl)spiro[4,5-dihydrothieno[2,3-c]pyran-7,4′-piperidine]-1′-yl]methyl]pyrazol-1-yl]-N,N-dimethyl-propanamide] | < 100 nM
CCc1cc2c(s1)CCO[C@@]21CCN(Cc2cn(Cc3nccn3C)nn2)[C@@H](C)C1 [Compound 56] | < 100 nM
CCc1cc2c(s1)CCO[C@@]21CCN(Cc2cnc(N[C@@H](C)C(C)(C)O)nc2)[C@@H](C)C1 [Compound 213] | < 100 nM
